For the first test, the target named is T1, α4β2 subtype of nicotinic acetylcholine receptors (Rattus norvegicus, UniProt P09483+P12390).
T1 construct: examined using rat brain membrane obtained from whole homogenized brain; from tissue; host or cells: whole brain of Fischer-344 male rats, membrane pellet
T1 sequence (P09483 31-630): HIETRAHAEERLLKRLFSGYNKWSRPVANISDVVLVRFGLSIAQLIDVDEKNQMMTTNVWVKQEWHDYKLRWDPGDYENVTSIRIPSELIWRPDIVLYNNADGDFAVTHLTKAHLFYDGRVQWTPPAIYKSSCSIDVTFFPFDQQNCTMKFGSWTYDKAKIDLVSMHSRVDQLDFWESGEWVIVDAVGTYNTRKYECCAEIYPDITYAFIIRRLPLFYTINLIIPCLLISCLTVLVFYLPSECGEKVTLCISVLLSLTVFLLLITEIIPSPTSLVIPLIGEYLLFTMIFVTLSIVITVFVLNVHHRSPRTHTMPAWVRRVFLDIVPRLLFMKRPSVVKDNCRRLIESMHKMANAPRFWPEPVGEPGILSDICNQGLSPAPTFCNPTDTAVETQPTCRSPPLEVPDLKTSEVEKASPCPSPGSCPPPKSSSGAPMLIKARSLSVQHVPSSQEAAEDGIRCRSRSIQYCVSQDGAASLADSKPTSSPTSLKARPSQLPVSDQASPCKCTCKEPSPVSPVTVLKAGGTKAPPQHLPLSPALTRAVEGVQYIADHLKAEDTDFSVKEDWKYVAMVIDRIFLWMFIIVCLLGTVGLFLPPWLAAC
T1 sequence (P12390 25-500): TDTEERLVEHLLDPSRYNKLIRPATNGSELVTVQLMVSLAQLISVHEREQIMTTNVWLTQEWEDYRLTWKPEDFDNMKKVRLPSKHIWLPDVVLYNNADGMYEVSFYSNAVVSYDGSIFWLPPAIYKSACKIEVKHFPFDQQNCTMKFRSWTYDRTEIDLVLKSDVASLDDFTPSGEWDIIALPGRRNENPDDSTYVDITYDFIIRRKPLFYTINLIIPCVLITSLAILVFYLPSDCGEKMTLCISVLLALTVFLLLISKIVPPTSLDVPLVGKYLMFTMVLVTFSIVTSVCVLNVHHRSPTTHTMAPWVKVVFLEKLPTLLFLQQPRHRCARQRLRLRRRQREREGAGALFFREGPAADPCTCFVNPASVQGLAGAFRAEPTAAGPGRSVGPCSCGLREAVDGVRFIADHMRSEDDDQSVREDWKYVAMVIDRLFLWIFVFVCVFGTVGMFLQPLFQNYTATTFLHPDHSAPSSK
Kind of test: Binding assays at α4β2 subtype of nicotinic acetylcholine receptors ([3H]-cytisine, rat brain membrane).
Settings: not given
One may read the Ki as the equilibrium dissociation constant of an inhibitor or competing ligand from its target. `N=c1sccn1Cc1ccc(F)nc1` [Compound 12, 3-(6-fluoro-3-pyridyl)methyl-2-imino-2,3-dihydrothiazole] gave a Ki of 1.89 nM.

Consider `N=C1SCCN1Cc1cnc(Cl)s1` [Compound 34, 3-(2-chloro-5-thiazolyl)methyl-2-iminothiazolidine], for which the inhibitory constant (Ki) amounted to 4.9 nM.

`N=C1SCCN1Cc1ccc(Cl)cc1` [Compound 31, 3-(4-chlorobenzyl)-2-iminothiazolidine] had an inhibitory constant (Ki) of 93 nM.

`N=c1ccc(-c2ccccc2)nn1Cc1ccc(Cl)nc1` [Compound 44, 2-(6-chloro-3-pyridyl)methyl-3-imino-6-phenyl-2,3-dihydropyridazine] showed an inhibition constant Ki of 64 nM.

`N=C1SCCN1Cc1ccnnc1` [Compound 33, 2-imino-3-(4-pyridazinyl)methylthiazolidine] yielded an inhibition constant Ki of 32 nM.

In turn, `N=c1sccn1Cc1ccc(Br)nc1` [Compound 11, 3-(6-bromo-3-pyridyl)methyl-2-imino-2,3-dihydrothiazole] yielded a Ki of 0.63 nM.

Staying with this test, now noted: rat brain membrane, [3H]-cytisine (2 nM); read-out: Affinities for receptors Ki α4β2.
As for `N=c1sccn1Cc1ccc(Cl)nc1` [Compound 8, 3-(6-chloro-3-pyridyl)methyl-2-imino-2,3-dihydrothiazole], the Ki came to 0.5 nM.

Regarding `N=C1CCCN1Cc1ccc(Cl)nc1` [Compound 14, 1-(6-Chloro-3-pyridyl)methyl-2-iminopyrrolidine], the Ki was found to be 1.9 nM.

On to `N=C1SCCN1Cc1ccc(Cl)nc1` [Compound 5, 3-(6-chloro-3-pyridyl)methyl-2-iminothiazolidine], for which the Ki came to 2.2 nM.

`Nc1nccn1Cc1ccc(Cl)nc1` [Compound 9, 2-amino-1-(6-chloro-3-pyridyl)methylimidazole]: the inhibition constant (Ki) is 22.2 nM.

On to `Nc1nccn1Cc1cccnc1` [Compound 55, 2-amino-i-(3-pyridyl)methylimidazole], for which the Ki turned out to be 43 nM.

In the case of `N=C1NCCN1Cc1ccc(Cl)nc1` [Compound 13, 1-(6-Chloro-3-pyridyl)methyl-2-iminoimidazolidine], the inhibition constant Ki was 4.6 nM.

With `N=c1ccccn1Cc1ccc(Cl)nc1` [Compound 7, 1-(6-chloro-3-pyridyl)methyl-2-imino-1,2-dihydropyridine], the Ki worked out at 3.1 nM.

Values taken from patent publication US20020028809A1 (SUNTORY LIMITED, priority 1999, published 2002).
